Reference: US20200354426A1 (MEDIMMUNE LIMITED, priority 2016, published 2020)
Numbered stars: 1 amine (or outer) side, 2 acyl side, 3 side chain; on linkers, the order of the positions; unused ones are H or OH. Side chains are listed from the residue outwards. Peptide text beside a SMILES is read from it. * marks the point of attachment. γGlu = O=C(O)[C@H](CCC(=O)[*:2])N[*:1]; Palmitoyl = CCCCCCCCCCCCCCCC(=O)*; Ahx = NCCCCCC(=O)O; βAla = NCCC(=O)O

Experiments:
Assay in all cases: cAMP activity assay in assay medium (assay 1)
Format in all cases: cell-based
[1] = target: T1, Human GIPr (Homo sapiens, UniProt P48546); conditions: assay medium; Table 4; read-out: hGIPR EC50
T1 construct: expressed in transfected cells
T1 sequence (P48546 22-466): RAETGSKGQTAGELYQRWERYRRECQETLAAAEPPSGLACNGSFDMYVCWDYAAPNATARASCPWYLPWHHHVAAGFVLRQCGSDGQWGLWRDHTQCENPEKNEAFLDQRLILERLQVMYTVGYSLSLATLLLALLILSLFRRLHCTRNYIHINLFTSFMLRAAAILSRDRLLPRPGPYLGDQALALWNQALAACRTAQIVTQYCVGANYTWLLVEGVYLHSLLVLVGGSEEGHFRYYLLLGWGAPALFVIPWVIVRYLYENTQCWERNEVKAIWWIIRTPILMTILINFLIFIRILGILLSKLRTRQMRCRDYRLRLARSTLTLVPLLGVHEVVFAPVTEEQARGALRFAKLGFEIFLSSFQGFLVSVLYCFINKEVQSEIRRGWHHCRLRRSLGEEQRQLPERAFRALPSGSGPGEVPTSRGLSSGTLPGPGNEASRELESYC
Source text: (§1) Biological Activity of Peptides in Cell-Based cAMP Activity Assay (Assay 1):
(§2) All sample dilutions were made in duplicate.

[2] = target: T2, Human GlucR (Homo sapiens, UniProt P47871); conditions: assay medium; Table 4; read-out: hGlucR EC50
T2 construct: expressed in transfected cells
T2 sequence (P47871 26-477): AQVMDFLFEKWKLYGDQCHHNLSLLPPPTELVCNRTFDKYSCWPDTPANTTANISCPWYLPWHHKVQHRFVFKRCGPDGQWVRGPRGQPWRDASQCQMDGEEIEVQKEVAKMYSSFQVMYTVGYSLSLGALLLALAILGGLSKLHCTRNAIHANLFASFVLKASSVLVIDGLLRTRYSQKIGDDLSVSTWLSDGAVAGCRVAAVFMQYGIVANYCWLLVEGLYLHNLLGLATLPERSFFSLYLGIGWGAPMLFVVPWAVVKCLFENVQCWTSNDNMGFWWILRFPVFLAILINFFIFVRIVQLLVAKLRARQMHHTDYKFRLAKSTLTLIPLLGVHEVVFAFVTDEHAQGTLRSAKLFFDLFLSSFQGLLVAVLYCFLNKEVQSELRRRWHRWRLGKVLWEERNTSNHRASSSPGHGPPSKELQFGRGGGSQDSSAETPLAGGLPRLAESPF
Source text: as §1, §2

[3] = target: Human GLP1R (Homo sapiens, UniProt P43220); parameters: expressed in transfected cells; conditions: assay medium; Table 4; read-out: hGLP1R EC50
Chain of Human GLP1R (P43220 24-463): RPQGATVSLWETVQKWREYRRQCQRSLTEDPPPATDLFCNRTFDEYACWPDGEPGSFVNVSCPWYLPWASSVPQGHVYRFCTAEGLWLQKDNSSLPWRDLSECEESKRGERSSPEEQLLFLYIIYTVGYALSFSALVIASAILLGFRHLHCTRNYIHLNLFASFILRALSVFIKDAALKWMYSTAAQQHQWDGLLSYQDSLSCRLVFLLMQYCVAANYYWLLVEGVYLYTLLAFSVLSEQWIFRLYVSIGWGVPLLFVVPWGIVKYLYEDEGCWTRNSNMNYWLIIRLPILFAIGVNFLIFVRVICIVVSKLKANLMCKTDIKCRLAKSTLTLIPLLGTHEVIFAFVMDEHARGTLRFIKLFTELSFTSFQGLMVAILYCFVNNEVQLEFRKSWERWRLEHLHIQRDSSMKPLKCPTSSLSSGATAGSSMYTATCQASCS
Source text: as §1, §2

EC50 [1] [nM]	EC50 [2] [nM]	EC50 [3] [nM]	SMILES
94	0.0089	0.021	CCCCCCCCCCCCCCCC(=O)NCCCCCC(=O)NCCCC[C@H](NC(=O)[C@H](CO)NC(=O)[C@H](CC(=O)O)NC(=O)[C@H](CC(C)C)NC(=O)[C@H](Cc1ccc(O)cc1)NC(=O)[C@H](CCC(=O)O)NC(=O)[C@H](CO)NC(=O)[C@H](Cc1ccc(O)cc1)NC(=O)[C@H](CC(=O)O)NC(=O)[C@H](CO)NC(=O)[C@@H](NC(=O)[C@H](Cc1ccccc1)NC(=O)[C@@H](NC(=O)CNC(=O)[C@H](CCC(N)=O)NC(=O)[C@H](CO)NC(=O)[C@@H](N)Cc1c[nH]cn1)[C@@H](C)O)[C@@H](C)O)C(=O)N[C@@H](CCCNC(=N)N)C(=O)N[C@@H](C)C(=O)N[C@@H](C)C(=O)N[C@@H](CC(=O)O)C(=O)N[C@@H](Cc1ccccc1)C(=O)N[C@H](C(=O)N[C@@H](C)C(=O)N[C@@H](Cc1c[nH]c2ccccc12)C(=O)N[C@@H](CC(C)C)C(=O)N[C@@H](CCC(=O)O)C(=O)N[C@@H](CCCNC(=N)N)C(=O)NCC(=O)NCC(N)=O)C(C)C [g818] (H-HSQGTFTSDYSEYLDSK([Ahx-Palmitoyl])RAADFVAWLERGG-NH2; N-terminus assumed)
103	0.00234	0.018	CCCCCCCCCCCCCCCC(=O)NCCC(=O)NCCCC[C@H](NC(=O)[C@H](CO)NC(=O)[C@H](CC(=O)O)NC(=O)[C@H](CC(C)C)NC(=O)[C@H](Cc1ccc(O)cc1)NC(=O)[C@H](CCCCN)NC(=O)[C@H](CO)NC(=O)[C@H](Cc1ccc(O)cc1)NC(=O)[C@H](CC(=O)O)NC(=O)[C@H](CO)NC(=O)[C@@H](NC(=O)[C@H](Cc1ccccc1)NC(=O)[C@@H](NC(=O)CNC(=O)[C@H](CCC(N)=O)NC(=O)[C@H](CO)NC(=O)[C@@H](N)Cc1c[nH]cn1)[C@@H](C)O)[C@@H](C)O)C(=O)N[C@@H](CCCNC(=N)N)C(=O)N[C@@H](C)C(=O)N[C@@H](CCCNC(=N)N)C(=O)N[C@@H](CC(=O)O)C(=O)N[C@@H](Cc1ccccc1)C(=O)N[C@H](C(=O)N[C@@H](C)C(=O)N[C@@H](Cc1c[nH]c2ccccc12)C(=O)N[C@@H](CC(C)C)C(=O)N[C@@H](CCC(=O)O)C(=O)N[C@@H](C)C(=O)NCC(=O)NCC(N)=O)C(C)C [g819] (H-HSQGTFTSDYSKYLDSK([βAla-Palmitoyl])RARDFVAWLEAGG-NH2; N-terminus assumed)
71.1	0.0117	0.0339	CCCCCCCCCCCCCCCC(=O)N[C@@H](CCC(=O)NCCCC[C@H](NC(=O)[C@H](CCCNC(=N)N)NC(=O)[C@H](CO)NC(=O)[C@H](Cc1ccc(O)cc1)NC(=O)[C@H](CC(=O)O)NC(=O)[C@H](CO)NC(=O)[C@@H](NC(=O)[C@H](Cc1ccccc1)NC(=O)[C@@H](NC(=O)CNC(=O)[C@H](CCC(N)=O)NC(=O)[C@H](CO)NC(=O)[C@@H](N)Cc1c[nH]cn1)[C@@H](C)O)[C@@H](C)O)C(=O)N[C@@H](CC(C)C)C(=O)N[C@@H](CC(=O)O)C(=O)N[C@@H](CO)C(=O)N[C@@H](CCC(=O)O)C(=O)N[C@@H](CCCNC(=N)N)C(=O)N[C@@H](C)C(=O)N[C@@H](CCCNC(=N)N)C(=O)N[C@@H](CC(=O)O)C(=O)N[C@@H](Cc1ccccc1)C(=O)N[C@H](C(=O)N[C@@H](C)C(=O)N[C@@H](Cc1c[nH]c2ccccc12)C(=O)N[C@@H](CC(C)C)C(=O)N[C@H](C(=O)N[C@@H](C)C(=O)NCC(=O)NCC(N)=O)C(C)C)C(C)C)C(=O)O [g820] (H-HSQGTFTSDYSRK([γGlu-Palmitoyl])LDSERARDFVAWLVAGG-NH2; N-terminus assumed)
84.2	0.00948	0.0973	CCCCCCCCCCCCCCCC(=O)N[C@@H](CCC(=O)NCCCC[C@H](NC(=O)[C@H](CO)NC(=O)[C@H](CC(=O)O)NC(=O)[C@H](CC(C)C)NC(=O)[C@H](Cc1ccc(O)cc1)NC(=O)[C@H](CCCNC(=N)N)NC(=O)[C@H](CO)NC(=O)[C@H](Cc1ccc(O)cc1)NC(=O)[C@H](CC(=O)O)NC(=O)[C@H](CO)NC(=O)[C@@H](NC(=O)[C@H](Cc1ccccc1)NC(=O)[C@@H](NC(=O)CNC(=O)[C@H](CCC(N)=O)NC(=O)[C@H](CO)NC(=O)[C@@H](N)Cc1c[nH]cn1)[C@@H](C)O)[C@@H](C)O)C(=O)N[C@@H](CCCNC(=N)N)C(=O)N[C@@H](C)C(=O)N[C@@H](CCCNC(=N)N)C(=O)N[C@@H](CC(=O)O)C(=O)N[C@@H](Cc1ccccc1)C(=O)N[C@H](C(=O)N[C@@H](CCC(=O)O)C(=O)N[C@@H](Cc1c[nH]c2ccccc12)C(=O)N[C@@H](CC(C)C)C(=O)N[C@H](C(=O)N[C@@H](C)C(=O)NCC(=O)NCC(N)=O)C(C)C)C(C)C)C(=O)O [g823] (H-HSQGTFTSDYSRYLDSK([γGlu-Palmitoyl])RARDFVEWLVAGG-NH2; N-terminus assumed)
57.4	0.00105	0.0471	CCCCCCCCCCCCCCCC(=O)N[C@@H](CCC(=O)NCCCC[C@H](NC(=O)[C@H](Cc1ccc(O)cc1)NC(=O)[C@H](CCCCN)NC(=O)[C@H](CO)NC(=O)[C@H](Cc1ccc(O)cc1)NC(=O)[C@H](CC(=O)O)NC(=O)[C@H](CO)NC(=O)[C@@H](NC(=O)[C@H](Cc1ccccc1)NC(=O)[C@@H](NC(=O)CNC(=O)[C@H](CCC(N)=O)NC(=O)[C@H](CO)NC(=O)[C@@H](N)Cc1c[nH]cn1)[C@@H](C)O)[C@@H](C)O)C(=O)N[C@@H](CC(=O)O)C(=O)N[C@@H](CO)C(=O)N[C@@H](CCCNC(=N)N)C(=O)N[C@@H](CCCNC(=N)N)C(=O)N[C@@H](C)C(=O)N[C@@H](CCCNC(=N)N)C(=O)N[C@@H](CC(=O)O)C(=O)N[C@@H](Cc1ccccc1)C(=O)N[C@H](C(=O)N[C@@H](CCC(=O)O)C(=O)N[C@@H](Cc1c[nH]c2ccccc12)C(=O)N[C@@H](CC(C)C)C(=O)N[C@@H](CCC(=O)O)C(=O)N[C@@H](C)C(=O)NCC(=O)NCC(N)=O)C(C)C)C(=O)O [g824] (H-HSQGTFTSDYSKYK([γGlu-Palmitoyl])DSRRARDFVEWLEAGG-NH2; N-terminus assumed)
58	0.00423	0.0293	CCCCCCCCCCCCCCCC(=O)NCCCCCC(=O)NCCCC[C@H](NC(=O)[C@H](CO)NC(=O)[C@H](CC(=O)O)NC(=O)[C@H](CC(C)C)NC(=O)[C@H](Cc1ccc(O)cc1)NC(=O)[C@H](CCC(=O)O)NC(=O)[C@H](CO)NC(=O)[C@H](Cc1ccc(O)cc1)NC(=O)[C@H](CC(=O)O)NC(=O)[C@H](CO)NC(=O)[C@@H](NC(=O)[C@H](Cc1ccccc1)NC(=O)[C@@H](NC(=O)CNC(=O)[C@H](CCC(N)=O)NC(=O)[C@H](CO)NC(=O)[C@@H](N)Cc1c[nH]cn1)[C@@H](C)O)[C@@H](C)O)C(=O)N[C@@H](CCCNC(=N)N)C(=O)N[C@@H](C)C(=O)N[C@@H](CCCNC(=N)N)C(=O)N[C@@H](CC(=O)O)C(=O)N[C@@H](Cc1ccccc1)C(=O)N[C@H](C(=O)N[C@@H](C)C(=O)N[C@@H](Cc1c[nH]c2ccccc12)C(=O)N[C@@H](CC(C)C)C(=O)N[C@@H](CCC(=O)O)C(=O)N[C@@H](CCCNC(=N)N)C(=O)NCC(=O)NCC(=O)O)C(C)C [g826] (H-HSQGTFTSDYSEYLDSK([Ahx-Palmitoyl])RARDFVAWLERGG-OH; N-terminus assumed)
97.2	0.424	0.191	CCCCCCCCCCCCCCCC(=O)N[C@@H](CCC(=O)NCCCC[C@H](NC(=O)[C@H](CO)NC(=O)[C@H](CC(=O)O)NC(=O)[C@H](CC(C)C)NC(=O)[C@H](Cc1ccc(O)cc1)NC(=O)[C@H](CCC(=O)O)NC(=O)[C@H](CO)NC(=O)[C@H](Cc1ccc(O)cc1)NC(=O)[C@H](CC(=O)O)NC(=O)[C@H](CO)NC(=O)[C@@H](NC(=O)[C@H](Cc1ccccc1)NC(=O)[C@@H](NC(=O)CNC(=O)[C@H](CCC(N)=O)NC(=O)[C@H](CO)NC(=O)[C@@H](N)Cc1c[nH]cn1)[C@@H](C)O)[C@@H](C)O)C(=O)N[C@@H](CCCNC(=N)N)C(=O)N[C@@H](C)C(=O)N[C@@H](CCCNC(=N)N)C(=O)N[C@@H](CC(=O)O)C(=O)N[C@@H](Cc1ccccc1)C(=O)N[C@H](C(=O)N[C@@H](CCC(=O)O)C(=O)N[C@@H](Cc1c[nH]c2ccccc12)C(=O)N[C@@H](CC(C)C)C(=O)N[C@H](C(=O)N[C@@H](C)C(=O)NCC(=O)NCC(N)=O)C(C)C)C(C)C)C(=O)O [g835] (H-HSQGTFTSDYSEYLDSK([γGlu-Palmitoyl])RARDFVEWLVAGG-NH2; N-terminus assumed)
100	0.0155	0.124	CCCCCCCCCCCCCCCC(=O)N[C@@H](CCC(=O)NCCCC[C@H](NC(=O)[C@H](Cc1ccc(O)cc1)NC(=O)[C@H](CCCCN)NC(=O)[C@H](CO)NC(=O)[C@H](Cc1ccc(O)cc1)NC(=O)[C@H](CC(=O)O)NC(=O)[C@H](CO)NC(=O)[C@@H](NC(=O)[C@H](Cc1ccccc1)NC(=O)[C@@H](NC(=O)CNC(=O)[C@H](CCC(N)=O)NC(=O)[C@H](CO)NC(=O)[C@@H](N)Cc1c[nH]cn1)[C@@H](C)O)[C@@H](C)O)C(=O)N[C@@H](CC(=O)O)C(=O)N[C@@H](CO)C(=O)N[C@@H](CCC(=O)O)C(=O)N[C@@H](CCCNC(=N)N)C(=O)N[C@@H](C)C(=O)N[C@@H](CCCNC(=N)N)C(=O)N[C@@H](CC(=O)O)C(=O)N[C@@H](Cc1ccccc1)C(=O)N[C@H](C(=O)N[C@@H](CCC(=O)O)C(=O)N[C@@H](Cc1c[nH]c2ccccc12)C(=O)N[C@@H](CC(C)C)C(=O)N[C@@H](CCC(=O)O)C(=O)N[C@@H](C)C(=O)NCC(=O)NCC(N)=O)C(C)C)C(=O)O [g836] (H-HSQGTFTSDYSKYK([γGlu-Palmitoyl])DSERARDFVEWLEAGG-NH2; N-terminus assumed)
